Measured values reported in patent US4136163A, “P-Menthane carboxamides having a physiological cooling effect” (Wilkinson Sword Limited, priority 1971, dated 1979).

System: cold receptors
Experiment: Threshold test: minimum quantity of compound on filter paper square on tongue giving a noticeable cooling effect, selected panel of 6 people
Type: in vivo, human
Conditions: for Threshold (average minimum quantity to produce a noticeable cooling effect): panel of 6 people, cooling reported 50% of the time
Text: For example, a controlling factor in the onset of cooling effect, its intensity and longevity will be the rate of penetration of the compounds through the epidermis and this will vary in different locations on the human body.
It will also benoted that the described test procedure is done on a statistical basis. This is necessary since sensitivity to these compounds will vary not only from compound to compound and from one part of the body to another, but also from one individual to another. Tests of this nature are commonly used in the testing of the organoleptic properties, e.g. taste, smell etc. of organic and inorganic compounds, see Kirk-Othmer: Encyclopedia of Chemical Technology, 2nd. Ed.
The following test procedure is aimed at determining the minimum quantity of the test compound required to produce a noticeable cooling effect on a person of average sensitivity, this minimum quantity being termed the threshold for that particular compound. The tests are carried out on a selected panel of 6 people of median sensitivity to 1-menthol.
To select a test panel of average sensitivity the following procedure is used. Known quantities of 1-menthol in solution in petroleum ether (bp.40-60) are placed on 5 mm. squares of filter paper, whereafter the solvent is allowed to evaporate. A panel of observers is enrolled and asked to place one impregnated square at a time on the tongue and to report on the presence or absence of a cooling effect. […] Conveniently, one starts with squares containing 2.0 μg. 1-menthol, the amount on each successive square being half that of the preceding square, i.e. the second test square will contain 1.0 μg, the third 0.5 μg and so on. Each quantity is tested on the tongue at least 10 times. In this way, the thresholds to cold receptor stimulus by 1-menthol are determined for each individual of the panel, the threshold for each individual being that amount of 1-menthol for which, in a series of not less than 10 test applications, a cooling effect is reported 50% of the time.
To test the activity of compounds according to this invention, the above procedure is repeated using only the 6 selected panel members of average sensitivity to 1-menthol. The individual thresholds for each test compound on each of the 6 selected panel members are determined and averaged. Those compounds whose average threshold on the select test panel is 100 μg or less are regarded as having cooling activity in accordance with this invention.

Structure (SMILES)	Threshold (average minimum quantity to produce a noticeable cooling effect)	average threshold to 1-menthol of selected panel (panel selection criterion, six members)
CC1CCC(C(C)C)C(C(=O)NC2CCCCC2)C1 (centres unmarked) [H, --C6 H11 (cyclo)]	1 µg	–
CCOC(=O)CCNC(=O)C1CC(C)CCC1C(C)C (centres unmarked) [H, --CH2 CH2 COOC2 H5]	1.5 µg	–
CC(=O)OCCNC(=O)C1CC(C)CCC1C(C)C (centres unmarked) [H, --CH2 CH2 OCOCH3]	1.5 µg	–
CC1CCC(C(C)C)C(C(=O)Nc2ccc(O)cc2)C1 (centres unmarked) [H, --C6 H4 OH(p)]	1.4 µg	–
CC1CCC(C(C)C)C(C(=O)NCc2ccccc2)C1 (centres unmarked) [H, --CH2 Ph]	10 µg	–
Cc1ccc(NC(=O)C2CC(C)CCC2C(C)C)cc1C (centres unmarked) [H, --C6 H3 Me2 (m,p)]	0.1 µg	–
CCOC(=O)C(C)NC(=O)C1CC(C)CCC1C(C)C (centres unmarked) [H, --CH(CH3)COOC2 H5]	0.4 µg	–
Cc1ccc(NC(=O)C2CC(C)CCC2C(C)C)cc1 (centres unmarked) [H, --C6 H4 Me(p)]	0.3 µg	–
CC(C)CNC(=O)C1CC(C)CCC1C(C)C (centres unmarked) [H, --C4 H9 (iso)]	0.9 µg	–
CC1CCC(C(C)C)C(C(=O)Nc2ccc([N+](=O)[O-])cc2)C1 (centres unmarked) [H, --C6 H4 NO2 (p)]	0.3 µg	–
CC1CCC(C(C)C)C(C(=O)NCCN)C1 (centres unmarked) [H, --CH2 CH2 NH2]	20 µg	–
CCCCNC(=O)C1CC(C)CCC1C(C)C (centres unmarked) [H, --C4 H9 (n)]	1.4 µg	–
CCC(C)NC(=O)C1CC(C)CCC1C(C)C (centres unmarked) [H, --C4 H9 (sec)]	0.7 µg	–
CCN(CC(C)C)C(=O)C1CC(C)CCC1C(C)C (centres unmarked) [--C2 H5, --C4 H9 (iso)]	5 µg	–
CC1CCC(C(C)C)C(C(=O)N(C)CCO)C1 (centres unmarked) [--CH3, --CH2 CH2 OH]	5 µg	–
CC1CCC(C(C)C)C(C(=O)N2CCCC2)C1 (centres unmarked) [--(CH2 H4 --]	5 µg	–
CCOC(=O)CC(C)NC(=O)C1CC(C)CCC1C(C)C (centres unmarked) [H, --CH(CH3)CH2 COOC2 H5]	0.8 µg	–
CCC(CO)NC(=O)C1CC(C)CCC1C(C)C (centres unmarked) [H, --CH(C2 H5)CH2 OH]	1.0 µg	–
COc1ccc(NC(=O)C2CC(C)CCC2C(C)C)cc1 (centres unmarked) [H, --C6 H4 OMe(p)]	0.1 µg	–
CC1CCC(C(C)C)C(C(=O)N2C(C)CCC2C)C1 (centres unmarked) [--CH(CH3)CH2 CH2 CH(CH3)--]	0.5 µg	–
CC1CCC(C(C)C)C(C(=O)NC(C)C)C1 (centres unmarked) [H, --C3 H7 (iso)]	0.5 µg	–
CC1CCC(C(C)C)C(C(=O)NC2CCCC2)C1 (centres unmarked) [H, --C5 H9 (cyclo)]	0.5 µg	–

Structure (SMILES)	Threshold (average minimum quantity to produce a noticeable cooling effect)	average threshold to 1-menthol of selected panel (panel selection criterion, six members)
CC1CCC(C(C)C)C(C(=O)NCCCCCCO)C1 (centres unmarked) [H, --(CH2)6 OH]	1.0 µg	–
CCCCCCCCCCNC(=O)C1CC(C)CCC1C(C)C (centres unmarked) [H, --C10 H21 (n)]	10 µg	–
CC1CCC(C(C)C)C(C(=O)Nc2ccc(F)cc2)C1 (centres unmarked) [H, --C6 H4 F(p)]	0.5 µg	–
CC1CCC(C(C)C)C(C(=O)NCC2CCCCCC2)C1 (centres unmarked) [H, --CH2 (C7 H13 (cyclo)]	20 µg	–
CCOC(=O)CNC(=O)C1CC(C)CCC1C(C)C (centres unmarked) [H, --CH2 COOC2 H5]	0.2 µg	–
CC1CCC(C(C)C)N(C(=O)C2CC(C)CCC2C(C)C)CC1 (centres unmarked) [--CH(iso-C3 H7)CH2 CH2 CH(CH3)CH2 CH2 --]	50 µg	–
CCOC(=O)CN(C)C(=O)C1CC(C)CCC1C(C)C (centres unmarked) [--CH3, --CH2 CO2 C2 H5]	0.8 µg	–
CC1CCC(C(C)C)C(C(=O)NC2CCCCCC2)C1 (centres unmarked) [H, --C7 H13 (cyclo)]	3 µg	–
CC1CCC(C(C)C)C(C(=O)Nc2cccnc2)C1 (centres unmarked) [H, --3-Pyridyl]	0.5 µg	–
CC1CCC(C(C)C)C(O)C1 (centres unmarked) [1-menthol, reference compound]	–	approximately 0.25 μg
CC1CCC(C(C)C)C(C(=O)N2CCCCC2)C1 (centres unmarked) [--(CH2)5 --]	6 µg	–
Cc1ccc(NC(=O)C2CC(C)CCC2C(C)C)cc1O (centres unmarked) [H, --C6 H3 Me(p)OH(m)]	0.1 µg	–
CCCCCNC(=O)C1CC(C)CCC1C(C)C (centres unmarked) [H, --C5 H11 (n)]	3 µg	–
CC1CCC(C(C)C)C(C(=O)NC2CC2)C1 (centres unmarked) [H, --C3 H5 (cyclo)]	0.5 µg	–
CCN(CC)C(=O)C1CC(C)CCC1C(C)C (centres unmarked) [--C2 H5, --C2 H5]	3 µg	–
CC1CCC(C(C)C)C(C(=O)N(CCO)C(C)C)C1 (centres unmarked) [--C3 H7 (iso), --CH2 CH2 OH]	3 µg	–
CC1CCC(C(C)C)C(C(=O)N2CCNCC2)C1 (centres unmarked) [--CH2 CH2 NHCH2 CH2 --]	15 µg	–
CC1CCC(C(C)C)C(C(=O)NO)C1 (centres unmarked) [H, --OH]	11 µg	–
CC1CCC(C(C)C)C(C(=O)Nc2ccccc2O)C1 (centres unmarked) [H, --C6 H4 OH(o)]	0.5 µg	–
CC1CCC(C(C)C)C(C(=O)NCC#CCO)C1 (centres unmarked) [H, --CH2 C≡CCH2 OH]	17 µg	–
CC1CCC(C(C)C)C(C(=O)NCO)C1 (centres unmarked) [H, --CH2 OH]	12 µg	–
CC1CCC(C(C)C)C(C(=O)NC(C)(C)C)C1 (centres unmarked) [H, --C4 H9 (tert.)]	0.4 µg	–
